Assay results taken from patent US12624012B2, “14-chloro-β-elemene nitric oxide donor derivative and preparation method and use thereof” (HANGZHOU NORMAL UNIVERSITY, priority 2021, dated 2026).

Tests used:
SW620 = experiment: In vitro anti-tumor activity evaluation test (CCK-8), SW620; assay type: cell-based, human; conditions: Homo sapiens, SW-620, SW620, 72 h; for inhibition at 1 µM: read-out: Inhibitory rates against tumor cell lines
Description: (§1) • (1) Cells were digested and counted. Cell suspensions (H520, SW620 5.0×10^4 cells/mL, and U87MG 3.5×10^4 cells/mL) were prepared. 100 μL of cell suspension was added to each well of a 96-well cell culture plate. • (2) The 96-well cell culture plate was incubated in a 37° C., 5%, CO2 incubator for 24 h. • (3) A drug was diluted with a culture medium to a desired working solution concentration. 100 μL of the corresponding drug-containing culture medium was added to each well. At the same time, a negative control group and a positive control group were set up. • (4) The 96-well cell culture plate was incubated in a 37° C., 5%, CO2 incubator for 72 h. • (5) The 96-well plate was stained with CCK-8, and at λ=450 nm, the OD value was determined. • 1) 10 μL of CCK-8 was added to each well. The culture plate continued to be incubated in the incubator for 2-3 h. • 2) The culture plate was rocked for 10 min to gently mix and remove air bubbles from the 96-well plate. • 3) At λ=450 nm, the OD value of each well was read by the enzyme marker, and the inhibitory rates were calculated. • (6) According to the following equation (1), the growth inhibitory rate of the tumor cells was obtained. The obtained results were substituted into an IC 50 calculation software SPSS17.0 to find out the IC50 value.

U87MG = experiment: In vitro anti-tumor activity evaluation test (CCK-8), U87MG; assay type: cell-based, human; conditions: Homo sapiens, U-87 MG, U87MG, 72 h; for inhibition at 1 µM: read-out: Inhibitory rates against tumor cell lines; for IC50: read-out: IC50 against different tumor cell lines
Description: as §1

NCI-H520 = experiment: In vitro anti-tumor activity evaluation test (CCK-8), NCI-H520; assay type: cell-based, human; conditions: Homo sapiens, NCI-H520, 72 h; for inhibition at 1 µM: read-out: Inhibitory rates against tumor cell lines; for IC50: read-out: IC50 against different tumor cell lines
Description: as §1

[1] = In vitro NO release test (incubation with L-cysteine, OD at 550 nm); conditions: 100 μM solution with cysteine solution, 37° C.
Description: • (1) Sodium nitrite solutions with different concentrations were prepared. A calibration curve was drawn. • (2) The sample was treated. A 100 μM solution was prepared. 2.5 mL of the prepared compound solution and 2.5 mL of the cysteine solution were taken and incubated at 37° C. for 120 min, and the resulting mixture was sampled at different time points. • (3) A blank hole and a standard hole were set. 160 μL of the sample was collected and mixed evenly with 0.08 mL of a developer and stood at 37° C. for 15 min. At λ=550 nm, the OD value of absorbance was measured by the enzyme marker. The NO release levels were obtained by substituting the value into the standard curve.

Row | Compound | inhibition at 1 µM (SW620) [%] | inhibition at 1 µM (U87MG) [%] | IC50 (U87MG) [nM] | inhibition at 1 µM (NCI-H520) [%] | NO-release concentrations ([1]; 5 min) [µM] | NO-release concentrations ([1]; 10 min) [µM] | NO-release concentrations ([1]; 20 min) [µM] | NO-release concentrations ([1]; 30 min) [µM] | NO-release concentrations ([1]; 60 min) [µM] | NO-release concentrations ([1]; 90 min) [µM] | NO-release concentrations ([1]; 120 min) [µM] | IC50 (NCI-H520) [nM] | IC50 (SW620; read-out: IC50 against different tumor cell lines) [nM]
1 | C=C[C@]1(C)CC[C@@H](C(=C)CN(CCOC(=O)CCCC(=O)OCCOc2no[n+]([O-])c2S(=O)(=O)c2ccccc2)C(C)C)C[C@H]1C(=C)CCl [Example 6] | 35.6 ± 2.8 | 54.3 ± 1.3 | 366 ± 19 | 43.4 ± 1.5 | 3.38 | 5.87 | 4.62 | 6.22 | 9.97 | 15.53 | 20.60 | – | –
2 | C=C[C@]1(C)CC[C@@H](C(=C)CN2CCCC(COC(=O)CCCC(=O)OCC#CCOc3no[n+]([O-])c3S(=O)(=O)c3ccccc3)C2)C[C@H]1C(=C)CCl (stereo partly drawn) [Example 20, 4-((4-((5-((1-(2-((1R,3R,4S)-3-(3-chloroprop-1-en-2-yl)-4-methyl-4-vinylcyclohexyl)allyl)piperidin-3-yl)methoxyl)-5-oxopentanoyl)oxy)but-2-yn-1-yl)oxy)-3-(phenylsulfonyl)-1,2,5-oxadiazole 2-oxide] | 43.2 ± 1.8 | 53.9 ± 0.6 | 1110 ± 52 | 44.5 ± 2.4 | 15.19 | 17.57 | 21.33 | 25.52 | 39.29 | 58.12 | 77.28 | 1180 ± 66 | –
3 | C=C[C@]1(C)CC[C@@H](C(=C)CN(CCOC(=O)CCCC(=O)OCC#CCOc2no[n+]([O-])c2S(=O)(=O)c2ccccc2)C(C)C)C[C@H]1C(=C)CCl [Example 8] | 10.8 ± 3.2 | 4.5 ± 1 | – | 5.6 ± 1.6 | 10.55 | 12.34 | 15.52 | 18.95 | 29.50 | 43.00 | 55.33 | – | –
4 | C=C[C@]1(C)CC[C@@H](C(=C)CN2CC[C@H](OC(=O)CCC(=O)OCC#CCOc3no[n+]([O-])c3S(=O)(=O)c3ccccc3)C2)C[C@H]1C(=C)CCl [Example 11, 4-((4-((4-(((S)-1-(2-((1R,3R,4S)-3-(3-chloroprop-1-en-2-yl)-4-methyl-4-vinylcyclohexyl)allyl)pyrrolidine-3-ly)oxy)-4-oxobutanoyl)oxy)but-2-yn-1-yl)oxy)-3-(phenylsulfonyl)-1,2,5-oxadiazole 2-oxide] | 30.5 ± 3.3 | 42 ± 6.5 | – | 46 ± 1 | 9.49 | 10.79 | 14.43 | 15.99 | 24.58 | 37.37 | 50.99 | 1020 ± 41 | –
5 | C=C[C@]1(C)CC[C@@H](C(=C)CN2CCN(CCOC(=O)CCCC(=O)OCC#CCOc3no[n+]([O-])c3S(=O)(=O)c3ccccc3)CC2)C[C@H]1C(=C)CCl [Example 24, 4-((4-((5-(2-(4-(2-((1R,3R,4S)-3-(3-chloroprop-1-en-2-yl)-4-methyl-4-vinylcyclohexyl)allyl)piperazin-1-yl)ethyoxyl)-5-oxyglutaryl)oxy)but-2-yn-1-yl)oxy)-3-(phenylsulfonyl)-1,2,5-oxadiazole 2-oxide] | 43.2 ± 5.5 | 50.3 ± 1.2 | 960 ± 75 | 46.8 ± 2.1 | 10.64 | 11.37 | 12.38 | 13.68 | 18.24 | 25.90 | 34.64 | 1062 ± 2 | –
6 | C=C[C@]1(C)CC[C@@H](C(=C)CN2CCC(COC(=O)CCC(=O)OCC#CCOc3no[n+]([O-])c3S(=O)(=O)c3ccccc3)CC2)C[C@H]1C(=C)CCl [Example 15, 4-((4-((4-((1-(2-((1R,3R,4S)-3-(3-chloroprop-1-en-2-yl)-4-methyl-4-vinylcyclohexyl)allyl)piperidin-4-yl)methoxyl)-4-oxobutanoyl)oxy)but-2-yn-1-yl)oxy)-3-(phenylsulfonyl)-1,2,5-oxadiazole 2-oxide] | 31.3 ± 0.3 | 40.5 ± 3.3 | – | 45.9 ± 1.4 | 8.67 | 10.07 | 12.979 | 15.92 | 25.47 | 36.31 | 48.15 | 1040 ± 33 | –
7 | C=C[C@]1(C)CC[C@@H](C(=C)CN(C)CCOC(=O)CCC(=O)OCC#CCOc2no[n+]([O-])c2S(=O)(=O)c2ccccc2)C[C@H]1C(=C)CCl [Example 3, 4-((4-((4-(2-((2-((1R,3R,4S)-3-(3-chloroprop-1-en-2-yl)-4-methyl-4-vinylcyclohexyl)allyl)(methyl)amino)ethyoxyl)-4-oxobutanoyl)oxy)but-2-yn-1-yl)oxy)-3-(phenylsulfonyl)-1,2,5-oxadiazole 2-oxide] | 30.1 ± 5.2 | 34.9 ± 0.6 | – | 35 ± 2.2 | 10.78 | 12.02 | 15.83 | 19.79 | 32.99 | 48.39 | 58.84 | – | –
8 | C=C[C@]1(C)CC[C@@H](C(=C)CN(C)CCOC(=O)CCC(=O)OCCOc2no[n+]([O-])c2S(=O)(=O)c2ccccc2)C[C@H]1C(=C)CCl [Example 1, 4-(2-((4-(2-((2-((1R,3R,4S)-3-(3-chloroprop-1-en-2-yl)-4-methyl-4-vinylcyclohexyl))(methyl)amino)ethyoxyl)-4-oxobutanoyl)oxy)ethyoxyl)-3-(phenylsulfonyl)-1,2,5-oxadiazole 2-oxide] | 30.7 ± 3.5 | 39.5 ± 2.1 | – | 28.8 ± 0.8 | 1.73 | 2.31 | 2.90 | 4.04 | 7.76 | 12.67 | 17.21 | – | –
9 | C=C[C@]1(C)CC[C@@H](C(=C)CN2CCC(COC(=O)CCCC(=O)OCCOc3no[n+]([O-])c3S(=O)(=O)c3ccccc3)CC2)C[C@H]1C(=C)CCl [Example 14, 4-(2-((5-((1-(2-((1R,3R,4S)-3-(3-chloroprop-1-en-2-yl)-4-methyl-4-vinylcyclohexyl)allyl)piperidin-4-yl)methoxyl)-5-oxopentanoyl)oxy)ethyoxyl)-3-(phenylsulfonyl)-1,2,5-oxadiazole 2-oxide] | 55.4 ± 1.5 | 54.8 ± 1.9 | 477 ± 11 | 50.1 ± 1.1 | 12.34 | 13.53 | 15.94 | 18.96 | 29.94 | 45.42 | 62.49 | 846 ± 27 | 814 ± 68
10 | C=C[C@]1(C)CC[C@@H](C(=C)CN2CCN(CCOC(=O)CCC(=O)OCC#CCOc3no[n+]([O-])c3S(=O)(=O)c3ccccc3)CC2)C[C@H]1C(=C)CCl [Example 23, 4-((4-((4-(2-(4-(2-((1R,3R,4S)-3-(3-chloroprop-1-en-2-yl)-4-methyl-4-vinylcyclohexyl)allyl)piperazin-1-yl)ethyoxyl)-4-oxobutanoyl)oxy)but-2-yn-1-yl)oxy)-3-(phenylsulfonyl)-1,2,5-oxadiazole 2-oxide] | 21.2 ± 2.1 | 33.4 ± 1.5 | – | 30.3 ± 2.9 | 4.74 | 5.95 | 7.49 | 7.63 | 8.44 | 13.57 | 17.82 | – | –
